Experimental data taken from ChEMBL document CHEMBL1201862, “PubChem BioAssay data set” (2004).
One block for each compound: values may come before it. Active and inactive are the calls of the source.

Tests used:
[1] = molecular target: Photoreceptor-specific nuclear receptor (Homo sapiens, UniProt Q9Y5X4); assay: ligands suppressing NR2E3 nuclear receptor activity – biochemical, TR-FRET, dose response (AID 463256); assay type: functional
[2] = molecular target: Peroxisome proliferator-activated receptor gamma/Nuclear receptor corepressor 2 (Homo sapiens, UniProt P37231+Q9Y618); assay: Counterscreen for NR2E3 inverse agonists: TR-FRET-based biochemical high throughput dose response assay to identify inverse agonists of the interaction between peroxisome proliferator-activated receptor gamma (PPARg) and nuclear receptor co-repressor 2 (NCOR2).; assay type: functional
[3] = molecular target: Cytochrome P450 2C19 (Homo sapiens, UniProt P33261); assay: qHTS Assay for Inhibitors and Substrates of Cytochrome P450 2C19. [Related pubchem assays: 410 ]; assay type: ADME; conditions: read-out: Potency
[4] = molecular target: Induced myeloid leukemia cell differentiation protein Mcl-1 (Homo sapiens, UniProt Q07820); assay type: functional
[5] = molecular target: Genome polyprotein (Hepatitis C virus, UniProt Q2Q167); assay: disruption of hepatitis C core self-association – biochemical, TR-FRET, dose response (AID 2159); design: species or system Hepacivirus hominis;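 also: blocks dimerization of HCV core protein measured by TR-FRET between tagged core106 pairs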
[6] = molecular target: T1, Estrogen receptor (Homo sapiens, UniProt P03372);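 also: potency for inhibiting coactivator peptide recruitment to the receptor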
T1 sequence (P03372 whole entry): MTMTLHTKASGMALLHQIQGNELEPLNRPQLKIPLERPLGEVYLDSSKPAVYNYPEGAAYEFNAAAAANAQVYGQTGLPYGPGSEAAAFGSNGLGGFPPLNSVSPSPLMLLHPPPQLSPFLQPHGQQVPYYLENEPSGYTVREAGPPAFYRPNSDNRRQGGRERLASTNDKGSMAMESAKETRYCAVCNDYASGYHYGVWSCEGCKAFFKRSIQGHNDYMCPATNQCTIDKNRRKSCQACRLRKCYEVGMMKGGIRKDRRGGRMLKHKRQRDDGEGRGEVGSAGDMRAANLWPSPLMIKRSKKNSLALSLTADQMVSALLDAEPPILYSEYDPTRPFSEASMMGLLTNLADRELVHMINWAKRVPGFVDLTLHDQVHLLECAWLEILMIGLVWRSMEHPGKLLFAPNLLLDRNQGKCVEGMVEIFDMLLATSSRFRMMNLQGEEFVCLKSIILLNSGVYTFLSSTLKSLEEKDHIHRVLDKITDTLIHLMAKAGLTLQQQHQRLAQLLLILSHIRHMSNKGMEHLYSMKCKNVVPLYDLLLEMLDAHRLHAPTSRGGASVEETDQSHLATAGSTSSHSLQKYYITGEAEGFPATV

[7] = toxicity to HepG2 liver cells – cell-based, plate reader, dry powder, set 6, cytotoxicity control, dose response (AID 743311); assay type: functional
[8] = IC50 of insulin release inhibition, rat insulinoma INS-1E line, 5 mM glucose, cell-based (AID 1117331); assay type: functional
[9] = cytotoxicity toward HCT116 cells – cell-based, CellTiter-Glo luminescence, IC50, dose response (AID 1117332); assay type: functional; conditions: HCT-116
[10] = rise of 4N DNA cells, HeLa – IC50, dose response (AID 1117351); assay type: functional, cell-based
[11] = CellTiter-Glo luminescence survival assay, SW480 colon tumor line, concentration-response curve, half-maximal inhibitory concentration (AID 1117338); assay type: functional
[12] = RKO cell viability reduction, dose response, CellTiter-Glo luminescence (AID 1117322); assay type: functional
[13] = rise of 2N DNA cells, HeLa – IC50, dose response (AID 1117349); assay type: functional, cell-based
[14] = cytotoxicity toward HT-29 cells – cell-based, CellTiter-Glo luminescence, IC50, dose response (AID 1117330); assay type: functional
[15] = cytotoxicity toward Colo320 cells – cell-based, CellTiter-Glo luminescence, IC50, dose response (AID 1117334); assay type: functional; conditions: COLO 320
[16] = Reduced DLD-1 viability, concentration-response, CellTiter-Glo luminescence (AID 1117352); assay type: functional
[17] = SNU-C1 cell viability reduction, dose response, CellTiter-Glo luminescence (AID 1117323); assay type: functional, cell-based
[18] = HCT116 cell viability decrease, GSK3B pretreatment – CellTiter-Glo, IC50, dose response (AID 1117339); assay type: functional; conditions: HCT-116
[19] = Fluorescence Cell-Based Dose Response to Identify Inhibitors of Thrombin Receptor-Activating Peptide SFLLRN-Mediated P-Selectin Induction on Platelets. [Related pubchem assays: 1663 (Primary HTS), 1889 (retest at dose ), 1891 (counterscreen), 1678 (Project Summary)]; assay type: functional
[20] = molecular target: Luciferin 4-monooxygenase (Photinus pyralis, UniProt P08659); assay: inhibition of purified Photinus pyralis luciferase – biochemical, luminescence, dose response (AID 1891)
[21] = Luminescence Cell-Based Dose Confirmation HTS to Identify Inhibitors of Platelet Dense Granule Release. [Related pubchem assays: 1663 (Primary HTS), 1678 (Summary of Project)]; assay type: functional
[22] = molecular target: RNA-editing ligase 1, mitochondrial (Trypanosoma brucei brucei, UniProt P86926); assay: inhibition of trypanosome RNA editing ligase – biochemical, fluorescence, Trypanosoma brucei, dose response (AID 1117295); assay type: functional
Sequence of RNA-editing ligase 1, mitochondrial (P86926 whole entry): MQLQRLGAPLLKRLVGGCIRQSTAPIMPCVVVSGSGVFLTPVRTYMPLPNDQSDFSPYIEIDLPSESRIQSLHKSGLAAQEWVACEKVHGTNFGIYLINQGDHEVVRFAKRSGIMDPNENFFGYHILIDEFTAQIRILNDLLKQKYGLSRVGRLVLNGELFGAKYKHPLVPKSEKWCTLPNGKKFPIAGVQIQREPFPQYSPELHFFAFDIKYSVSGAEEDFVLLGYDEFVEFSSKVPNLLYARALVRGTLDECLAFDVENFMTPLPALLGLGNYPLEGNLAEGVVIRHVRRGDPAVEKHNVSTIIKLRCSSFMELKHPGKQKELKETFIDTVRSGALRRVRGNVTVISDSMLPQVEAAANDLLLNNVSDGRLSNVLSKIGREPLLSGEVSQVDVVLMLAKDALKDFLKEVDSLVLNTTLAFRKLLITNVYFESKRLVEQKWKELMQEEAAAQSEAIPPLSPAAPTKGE

Sequence of Luciferin 4-monooxygenase (P08659 whole entry): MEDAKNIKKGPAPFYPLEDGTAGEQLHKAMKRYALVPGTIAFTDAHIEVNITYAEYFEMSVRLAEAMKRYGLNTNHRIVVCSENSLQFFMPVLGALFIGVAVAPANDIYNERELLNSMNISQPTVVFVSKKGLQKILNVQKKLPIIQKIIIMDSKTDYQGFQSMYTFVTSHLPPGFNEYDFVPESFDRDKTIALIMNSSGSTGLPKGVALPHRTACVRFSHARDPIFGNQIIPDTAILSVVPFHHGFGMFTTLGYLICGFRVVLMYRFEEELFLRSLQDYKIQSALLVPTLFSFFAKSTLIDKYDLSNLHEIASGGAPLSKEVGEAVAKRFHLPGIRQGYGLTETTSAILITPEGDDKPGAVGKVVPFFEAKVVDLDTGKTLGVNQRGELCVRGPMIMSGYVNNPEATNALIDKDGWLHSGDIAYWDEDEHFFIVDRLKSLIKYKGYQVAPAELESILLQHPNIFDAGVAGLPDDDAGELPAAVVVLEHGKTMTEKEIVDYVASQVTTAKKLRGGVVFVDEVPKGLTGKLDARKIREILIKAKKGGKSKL
Sequence of Photoreceptor-specific nuclear receptor (Q9Y5X4 whole entry): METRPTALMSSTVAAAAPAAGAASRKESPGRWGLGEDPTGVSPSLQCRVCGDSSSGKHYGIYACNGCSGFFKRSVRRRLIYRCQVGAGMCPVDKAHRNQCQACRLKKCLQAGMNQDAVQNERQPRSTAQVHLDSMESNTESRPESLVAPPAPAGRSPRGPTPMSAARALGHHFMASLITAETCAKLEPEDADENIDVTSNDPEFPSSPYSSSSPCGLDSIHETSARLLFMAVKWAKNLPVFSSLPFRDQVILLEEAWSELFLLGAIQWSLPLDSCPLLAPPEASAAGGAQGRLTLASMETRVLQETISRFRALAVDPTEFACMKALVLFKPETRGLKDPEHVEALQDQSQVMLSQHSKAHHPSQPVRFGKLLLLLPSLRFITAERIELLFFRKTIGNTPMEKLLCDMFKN
Sequence of Cytochrome P450 2C19 (P33261 whole entry): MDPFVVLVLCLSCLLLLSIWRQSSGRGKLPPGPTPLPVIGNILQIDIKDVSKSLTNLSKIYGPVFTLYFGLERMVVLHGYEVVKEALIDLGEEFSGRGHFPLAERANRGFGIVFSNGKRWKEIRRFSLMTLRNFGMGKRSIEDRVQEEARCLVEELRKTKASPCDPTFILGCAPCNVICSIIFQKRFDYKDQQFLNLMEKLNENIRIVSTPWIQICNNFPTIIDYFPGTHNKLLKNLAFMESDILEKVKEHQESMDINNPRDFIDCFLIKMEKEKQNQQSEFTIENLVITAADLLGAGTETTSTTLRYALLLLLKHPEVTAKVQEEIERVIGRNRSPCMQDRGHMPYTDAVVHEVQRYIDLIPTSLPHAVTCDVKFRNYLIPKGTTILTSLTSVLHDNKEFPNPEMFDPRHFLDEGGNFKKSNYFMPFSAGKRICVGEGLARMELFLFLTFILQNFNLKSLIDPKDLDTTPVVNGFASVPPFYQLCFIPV
Sequence of Peroxisome proliferator-activated receptor gamma/Nuclear receptor corepressor 2 (P37231 whole entry): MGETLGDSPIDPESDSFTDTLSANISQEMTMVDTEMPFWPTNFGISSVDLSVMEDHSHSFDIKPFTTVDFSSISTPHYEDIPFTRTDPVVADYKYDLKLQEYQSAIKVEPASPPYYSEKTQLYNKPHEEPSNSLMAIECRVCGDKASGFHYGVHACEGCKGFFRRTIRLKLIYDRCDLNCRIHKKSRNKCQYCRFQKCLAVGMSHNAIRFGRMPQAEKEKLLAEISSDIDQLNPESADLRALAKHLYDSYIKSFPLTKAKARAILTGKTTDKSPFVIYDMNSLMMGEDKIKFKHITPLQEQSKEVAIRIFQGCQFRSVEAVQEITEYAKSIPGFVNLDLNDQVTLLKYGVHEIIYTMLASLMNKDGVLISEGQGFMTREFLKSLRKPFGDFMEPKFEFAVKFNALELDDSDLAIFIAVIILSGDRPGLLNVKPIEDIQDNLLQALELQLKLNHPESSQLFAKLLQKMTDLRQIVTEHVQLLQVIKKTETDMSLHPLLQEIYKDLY
Sequence of Peroxisome proliferator-activated receptor gamma/Nuclear receptor corepressor 2 (Q9Y618 whole entry): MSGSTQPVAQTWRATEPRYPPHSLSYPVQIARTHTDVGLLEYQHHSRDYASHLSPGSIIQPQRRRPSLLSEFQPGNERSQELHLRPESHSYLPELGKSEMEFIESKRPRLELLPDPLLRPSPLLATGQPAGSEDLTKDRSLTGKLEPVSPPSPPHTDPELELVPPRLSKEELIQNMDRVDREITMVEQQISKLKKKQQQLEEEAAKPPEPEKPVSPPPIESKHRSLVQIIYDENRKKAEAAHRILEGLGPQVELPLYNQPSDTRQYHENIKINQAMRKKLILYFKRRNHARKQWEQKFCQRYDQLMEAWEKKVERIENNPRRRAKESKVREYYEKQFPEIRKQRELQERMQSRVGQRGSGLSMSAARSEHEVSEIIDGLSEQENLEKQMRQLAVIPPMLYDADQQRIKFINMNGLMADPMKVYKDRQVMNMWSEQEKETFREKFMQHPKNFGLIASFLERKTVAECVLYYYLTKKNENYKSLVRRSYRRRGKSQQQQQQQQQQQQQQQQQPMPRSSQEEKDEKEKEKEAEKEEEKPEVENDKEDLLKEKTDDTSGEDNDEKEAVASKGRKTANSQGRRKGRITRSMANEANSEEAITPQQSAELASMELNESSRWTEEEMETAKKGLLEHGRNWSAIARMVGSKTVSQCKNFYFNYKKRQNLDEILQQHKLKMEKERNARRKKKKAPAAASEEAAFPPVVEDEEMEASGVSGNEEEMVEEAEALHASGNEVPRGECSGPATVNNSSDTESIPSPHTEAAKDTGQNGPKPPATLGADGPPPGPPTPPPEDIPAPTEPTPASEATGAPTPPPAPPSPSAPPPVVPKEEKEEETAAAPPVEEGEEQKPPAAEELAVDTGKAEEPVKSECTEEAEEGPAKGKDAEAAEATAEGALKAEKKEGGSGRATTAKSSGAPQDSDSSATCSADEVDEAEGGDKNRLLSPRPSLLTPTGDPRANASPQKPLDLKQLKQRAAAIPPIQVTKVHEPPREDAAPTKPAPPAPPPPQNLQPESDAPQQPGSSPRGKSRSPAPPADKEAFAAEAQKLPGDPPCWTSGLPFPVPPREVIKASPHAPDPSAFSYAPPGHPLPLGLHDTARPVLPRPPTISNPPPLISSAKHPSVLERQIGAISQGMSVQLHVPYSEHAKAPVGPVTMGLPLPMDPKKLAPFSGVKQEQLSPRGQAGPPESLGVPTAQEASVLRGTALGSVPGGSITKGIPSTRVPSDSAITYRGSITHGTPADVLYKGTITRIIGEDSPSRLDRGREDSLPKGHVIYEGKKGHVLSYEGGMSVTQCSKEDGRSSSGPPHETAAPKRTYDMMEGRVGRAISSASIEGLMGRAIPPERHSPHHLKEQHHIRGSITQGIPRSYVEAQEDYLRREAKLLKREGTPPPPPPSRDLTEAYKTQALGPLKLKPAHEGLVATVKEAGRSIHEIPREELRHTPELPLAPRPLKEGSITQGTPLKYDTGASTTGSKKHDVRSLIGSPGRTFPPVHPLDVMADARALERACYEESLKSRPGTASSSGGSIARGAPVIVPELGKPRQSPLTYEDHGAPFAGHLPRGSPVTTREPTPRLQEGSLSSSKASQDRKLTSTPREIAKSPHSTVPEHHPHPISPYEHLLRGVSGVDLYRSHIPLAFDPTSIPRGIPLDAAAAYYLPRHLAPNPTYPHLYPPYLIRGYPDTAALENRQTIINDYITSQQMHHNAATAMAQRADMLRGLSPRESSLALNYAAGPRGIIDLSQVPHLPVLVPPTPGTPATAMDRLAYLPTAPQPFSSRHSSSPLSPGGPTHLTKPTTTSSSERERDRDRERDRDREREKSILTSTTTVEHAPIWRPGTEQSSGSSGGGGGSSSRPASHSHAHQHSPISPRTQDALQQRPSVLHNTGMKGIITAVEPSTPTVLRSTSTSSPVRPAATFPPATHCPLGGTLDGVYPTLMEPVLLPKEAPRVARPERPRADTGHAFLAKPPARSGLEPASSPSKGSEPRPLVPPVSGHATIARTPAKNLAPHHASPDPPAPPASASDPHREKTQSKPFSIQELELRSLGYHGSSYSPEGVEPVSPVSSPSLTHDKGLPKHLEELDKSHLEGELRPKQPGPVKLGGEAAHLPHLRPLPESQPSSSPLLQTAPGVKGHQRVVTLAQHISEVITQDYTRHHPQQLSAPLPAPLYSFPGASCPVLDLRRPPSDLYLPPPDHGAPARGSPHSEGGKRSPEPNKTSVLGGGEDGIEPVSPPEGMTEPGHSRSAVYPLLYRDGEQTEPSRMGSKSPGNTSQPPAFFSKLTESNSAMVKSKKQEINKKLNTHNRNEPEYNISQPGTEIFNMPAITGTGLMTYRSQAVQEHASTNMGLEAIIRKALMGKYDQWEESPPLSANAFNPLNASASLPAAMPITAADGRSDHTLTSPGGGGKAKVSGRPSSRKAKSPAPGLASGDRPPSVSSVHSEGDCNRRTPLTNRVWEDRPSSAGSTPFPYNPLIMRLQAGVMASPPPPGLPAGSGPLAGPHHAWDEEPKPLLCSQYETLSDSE
Sequence of Genome polyprotein (Q2Q167 whole entry): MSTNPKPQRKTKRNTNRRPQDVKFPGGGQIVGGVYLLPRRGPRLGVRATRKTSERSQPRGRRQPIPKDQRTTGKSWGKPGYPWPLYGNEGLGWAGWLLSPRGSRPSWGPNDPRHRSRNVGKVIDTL

- IC50 [1]: 6.31 µM (active)
- IC50 [2]: 6.54 µM (active)
Structure (SMILES): O=C(Cc1ccccc1)Nc1ccc2oc(-c3ccncc3)nc2c1

- AC50 [3]: 10 µM (inconclusive)
Structure (SMILES): COc1ccccc1N1CCN(CCN(C(=O)c2ccc(I)cc2)c2ccccn2)CC1

- IC50 [4]: 3.8 µM (not active)
- IC50 [5]: > 49.8 µM (not active)
- IC50 [6]: 2.77 µM (active)
Structure (SMILES): Cc1oc(-c2ccc(Cl)cc2)cc1-c1nn2c(-c3ccoc3C)nnc2s1

- IC50 [22]: > 96.6 µM (inactive)
Structure (SMILES): C=CCNCCOCCOc1ccc(Cl)cc1C(C)(C)C

More lines, now with the values behind:

Structure (SMILES): CC(C)Oc1ccc(OCCn2c(=S)[nH]c3ccccc32)cc1
- AC50 [7]: > 52 µM (inactive)

Structure (SMILES): OC(CCN1CCCCC1)(c1ccccc1)c1ccccc1 [PRIDINOL]
- IC50 [8]: 27 µM (inactive)

Structure (SMILES): O=C1C2CC=CCC2C(=O)N1SC(Cl)(Cl)Cl (configuration not stated) [CAPTAN]
- IC50 [9]: 1.76 µM (active)
- IC50 [10]: > 10 µM (inactive)
- IC50 [11]: 0.0788 µM (active)
- IC50 [12]: 0.402 µM (active)
- IC50 [13]: > 10 µM (inactive)
- IC50 [14]: 0.5 µM (active)
- IC50 [15]: 0.306 µM (active)
- IC50 [16]: 0.348 µM (active)
- IC50 [17]: 0.903 µM (active)
- IC50 [18]: 2.21 µM (active)

Structure (SMILES): C/C(=N/NC(=O)C1CCCC1)c1ccc(NC(=O)C(F)(F)F)cc1
- EC50 [19]: < 1 µM (active)
- EC50 [20]: > 112 µM (not active)
- EC50 [21]: 3.55 µM (active)
